Test results: patent US20260007133A1, “HERBICIDAL COMPOSITION COMPRISING AZINE COMPOUNDS” (BASF SE, priority 2022, published 2026)

Columns and labels:
Format in all cases: in vivo
Abutilon theophrasti [1] = experiment: Greenhouse pre-emergence (PRE) herbicidal test on ABUTH; details: Abutilon theophrasti, pre-emergence, 480 h, read-out: solo application % activity
Procedure, shortened: (§1)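 Visual 0–100 rating at 20 days after treatment; 0 = normal growth, 100 = no emergence or complete kill of shoots. Pre-emergent application to seeded pots of loamy sand (~3.0% humus), species-dependent temperature 10-25° C or 20-35° C.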

Alopecurus myosuroides = experiment: Greenhouse pre-emergence (PRE) herbicidal test on ALOMY; details: Alopecurus myosuroides, pre-emergence, 480 h
Procedure, shortened: as §1

Ambrosia artemisiifolia = experiment: Greenhouse pre-emergence (PRE) herbicidal test on AMBEL
Commelina benghalensis = experiment: Greenhouse pre-emergence (PRE) herbicidal test on COMBE
Procedure, shortened: as §1

Euphorbia heterophylla [2] = experiment: Greenhouse pre-emergence (PRE) herbicidal test on EPHHL; details: Euphorbia heterophylla, pre-emergence, 480 h
Procedure, shortened: as §1

Setaria viridis = experiment: Greenhouse pre-emergence (PRE) herbicidal test on SETVI
Description: (§2) The culture containers used were plastic pots containing loamy sand with approximately 3.0% of humus as substrate. The seeds of the test plants were sown separately for each species.
For the pre-emergence treatment, the active compounds, suspended or emulsified in water, were applied directly after sowing by means of finely distributing nozzles. The containers were irrigated gently to promote germination and growth and subsequently covered with transparent plastic hoods until the plants had rooted. This cover caused uniform germination of the test plants unless this was adversely affected by the active compounds.
(§3) Depending on the species, the plants were kept at 10-25° C. and 20-35° C., respectively.
(§4) The test period extended over 2 to 4 weeks. During this time, the plants were tended and their response to the individual treatments was evaluated.
(§5) Evaluation was carried out using a scale from 0 to 100. 100 means no emergence of the plants, or complete destruction of at least the above-ground parts, and 0 means no damage or normal course of growth. A good herbicidal activity is given at values of at least 70, and very good herbicidal activity is given at values of at least 85.
(§6) If not stated differently, the respective components A and B, and if appropriate, C were formulated as a 5% by weight strength emulsion concentrate and, with addition of the amount of solvent system, introduced into the spray liquor used for applying the active compound.
(§7) As indicated application was either post emergent (POST) at the respective growth stage (GS) of the weed (BBCH code), or pre-emergent (PRE). […]

Abutilon theophrasti [3] = experiment: Greenhouse post-emergence (POST) herbicidal test on ABUTH; details: Abutilon theophrasti, post-emergence, 480 h, read-out: solo application % activity
Procedure, shortened: (§8)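 Greenhouse weeds, raised in pots of humus-containing loamy sand, receive a water-based spray of the actives once 3 to 15 cm tall. Damage is rated visually from 0 (none) to 100 (above-ground parts destroyed) 20 days after treatment.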

Digitaria sanguinalis = experiment: Greenhouse post-emergence (POST) herbicidal test on DIGSA; details: Digitaria sanguinalis, post-emergence, 480 h, read-out: solo application % activity
Procedure, shortened: as §8

Echinochloa crus-galli [4] = experiment: Greenhouse post-emergence (POST) herbicidal test on ECHCG; details: Echinochloa crus-galli, post-emergence, 480 h, read-out: solo application % activity
Procedure, shortened: as §8

Euphorbia heterophylla [5] = experiment: Greenhouse post-emergence (POST) herbicidal test on EPHHL; details: Euphorbia heterophylla, post-emergence, 480 h, read-out: solo application % activity
Procedure: as §2
(§9) For the post-emergence treatment, the test plants were grown to a plant height of from 3 to 15 cm, depending on the plant habit, and only then treated with the active compounds which had been suspended or emulsified in water. To this end, the test plants were either sown directly, and grown in the same containers, or they were first grown separately as seedlings and transplanted into the test containers a few days prior to treatment.
as §3, §4, §5, §6, §7

Ipomoea hederacea = experiment: Greenhouse post-emergence (POST) herbicidal test on IPOHE
Procedure: as §2, §9, §3, §4, §5, §6
As indicated application was either post emergent (POST) at the respective growth stage (GS) of the weed (BBCH code), or pre-emergent (PRE).
Assessment was 20 days after treatment (DAT).

Lolium multiflorum = experiment: Greenhouse pre-emergence (PRE) herbicidal test on LOLMU
Procedure, shortened: as §1

Amaranthus retroflexus [6] = experiment: Greenhouse post-emergence (POST) herbicidal test on AMARE; details: Amaranthus retroflexus, post-emergence, 480 h, read-out: solo application % activity
Procedure: as §2, §9, §3, §4, §5, §6, §7

Geranium pusillum = experiment: Greenhouse post-emergence (POST) herbicidal test on GERPU; details: Geranium pusillum, post-emergence, 480 h, read-out: solo application % activity
Procedure, shortened: as §8

Amaranthus retroflexus [7] = experiment: Greenhouse pre-emergence (PRE) herbicidal test on AMARE
Procedure: as §2
(§10) The containers were irrigated gently to promote germination and growth and subsequently covered with transparent plastic hoods until the plants had rooted.
as §3, §4, §5, §7

Echinochloa crus-galli [8] = experiment: Greenhouse pre-emergence (PRE) herbicidal test on ECHCG; details: PRE, ECHCG, use rate 6.25 gai/ha, 20 DAT
Procedure: as §2, §10, §3, §4, §5, §7

[9] = read-out: solo application % activity
[10] = Ambrosia artemisiifolia, pre-emergence, 480 h, read-out: solo application % activity
[11] = Commelina benghalensis, pre-emergence, 480 h, read-out: solo application % activity
[12] = Ambrosia artemisiifolia, pre-emergence, 480 h, read-out: % activity
[13] = Commelina benghalensis, pre-emergence, 480 h, read-out: % activity
[14] = Lolium multiflorum, pre-emergence, 480 h, read-out: % activity

Compound: CC(C)N1C(=O)c2ccccc2NS1(=O)=O [Bentazone]
- inhibition at 240 g/ha (Abutilon theophrasti [1]; PRE, ABUTH, use rate 240 gai/ha, 20 DAT): 30%
- inhibition at 240 g/ha (Alopecurus myosuroides; PRE, ALOMY, use rate 240 gai/ha, 20 DAT, read-out: solo application % activity): 15%
- inhibition at 240 g/ha (Ambrosia artemisiifolia; Ambrosia artemisiifolia, pre-emergence, 480 h, PRE, AMBEL, use rate 240 gai/ha, 20 DAT, read-out: solo application % activity): 0%
- inhibition at 480 g/ha (Ambrosia artemisiifolia; Ambrosia artemisiifolia, pre-emergence, 480 h, PRE, AMBEL, use rate 480 gai/ha, 20 DAT, read-out: solo application % activity): 0%
- inhibition at 240 g/ha (Commelina benghalensis; Commelina benghalensis, pre-emergence, 480 h, PRE, COMBE, use rate 240 gai/ha, 20 DAT, read-out: solo application % activity): 0%
- inhibition at 240 g/ha (Euphorbia heterophylla [2]; PRE, EPHHL, use rate 240 gai/ha, 20 DAT, read-out: solo application % activity): 5%
- inhibition at 480 g/ha (Euphorbia heterophylla [2]; PRE, EPHHL, use rate 480 gai/ha, 20 DAT, read-out: solo application % activity): 5%
- inhibition at 240 g/ha (Setaria viridis; Setaria viridis, pre-emergence, 480 h, PRE, SETVI, use rate 240 gai/ha, 20 DAT, read-out: solo application % activity): 10%
- inhibition at 480 g/ha (Setaria viridis; Setaria viridis, pre-emergence, 480 h, PRE, SETVI, use rate 480 gai/ha, 20 DAT, read-out: solo application % activity): 0%
- inhibition at 480 g/ha (Abutilon theophrasti [3]; POST, ABUTH, use rate 480 gai/ha, 20 DAT): 10%
- inhibition at 240 g/ha (Digitaria sanguinalis; POST, DIGSA, use rate 240 gai/ha, 20 DAT): 0%
- inhibition at 240 g/ha (Echinochloa crus-galli [4]; POST, ECHCG, use rate 240 gai/ha, 20 DAT): 10%
- inhibition at 480 g/ha (Echinochloa crus-galli [4]; POST, ECHCG, use rate 480 gai/ha, 20 DAT): 30%
- inhibition at 240 g/ha (Euphorbia heterophylla [5]; POST, EPHHL, use rate 240 gai/ha, 20 DAT): 0%
- inhibition at 480 g/ha (Euphorbia heterophylla [5]; POST, EPHHL, use rate 480 gai/ha, 20 DAT): 0%
- inhibition at 240 g/ha (Ipomoea hederacea; Ipomoea hederacea, post-emergence, 480 h, POST, IPOHE, use rate 240 gai/ha, 20 DAT, read-out: solo application % activity): 0%

Compound: CCSC(C)CC1CC(=O)C(/C(CC)=N/OC/C=C/Cl)=C(O)C1 (centres unmarked) [Clethodim, clethodim]
- inhibition at 5 g/ha (Abutilon theophrasti [1]): 0%
- inhibition at 5 g/ha (Alopecurus myosuroides; [9]): 60%
- inhibition at 10 g/ha (Alopecurus myosuroides; [9]): 75%
- inhibition at 5 g/ha (Ambrosia artemisiifolia; [10]): 0%
- inhibition at 10 g/ha (Ambrosia artemisiifolia; [10]): 0%
- inhibition at 5 g/ha (Commelina benghalensis; [11]): 0%
- inhibition at 10 g/ha (Commelina benghalensis; [11]): 0%
- inhibition at 5 g/ha (Euphorbia heterophylla [2]; [9]): 0%
- inhibition at 10 g/ha (Euphorbia heterophylla [2]; [9]): 0%
- inhibition at 5 g/ha (Lolium multiflorum; Lolium multiflorum, pre-emergence, 480 h, read-out: solo application % activity): 60%
- inhibition at 5 g/ha (Setaria viridis; Setaria viridis, pre-emergence, 480 h, read-out: solo application % activity): 25%
- inhibition at 10 g/ha (Abutilon theophrasti [3]): 0%
- inhibition at 5 g/ha (Amaranthus retroflexus [6]): 0%
- inhibition at 10 g/ha (Amaranthus retroflexus [6]): 0%
- inhibition at 10 g/ha (Digitaria sanguinalis): 80%
- inhibition at 5 g/ha (Echinochloa crus-galli [4]): 80%
- inhibition at 5 g/ha (Euphorbia heterophylla [5]): 0%
- inhibition at 10 g/ha (Euphorbia heterophylla [5]): 0%
- inhibition at 5 g/ha (Geranium pusillum): 0%
- inhibition at 10 g/ha (Geranium pusillum): 0%
- inhibition at 5 g/ha (Ipomoea hederacea; Ipomoea hederacea, post-emergence, 480 h, read-out: solo application % activity): 0%

Compound: COc1c(Cl)ccc(-c2nc(C(=O)OCc3ccccc3)c(Cl)c(N)c2F)c1F [Florpyrauxifen-Benzyl, florpyrauxifen-benzyl]
- % activity (Amaranthus retroflexus [7]; AMARE PRE, use rate 5 gai/ha): 0%
- % activity (Ambrosia artemisiifolia; AMBEL PRE, use rate 1.25 gai/ha): 30%
- % activity (Ambrosia artemisiifolia; AMBEL PRE, use rate 5 gai/ha): 45%
- % activity (Commelina benghalensis; COMBE PRE, use rate 5 gai/ha): 45%

Compound: CCOC(=O)C(C)Oc1ccc(Oc2cnc3cc(Cl)ccc3n2)cc1 (centres unmarked) [Quizalofop-Ethyl, quizalofop-ethyl]
- pest or weed control at 2 g/ha (Alopecurus myosuroides; read-out: % activity): 0%
- pest or weed control at 4 g/ha (Amaranthus retroflexus [7]; Amaranthus retroflexus, pre-emergence, 480 h, read-out: % activity): 0%
- pest or weed control at 2 g/ha (Ambrosia artemisiifolia; [12]): 0%
- pest or weed control at 4 g/ha (Ambrosia artemisiifolia; [12]): 0%
- pest or weed control at 2 g/ha (Commelina benghalensis; [13]): 0%
- pest or weed control at 4 g/ha (Commelina benghalensis; [13]): 0%
- pest or weed control at 4 g/ha (Euphorbia heterophylla [2]; read-out: % activity): 5%
- pest or weed control at 2 g/ha (Lolium multiflorum; [14]): 0%
- pest or weed control at 4 g/ha (Lolium multiflorum; [14]): 0%

Compound: Cc1c(C(=O)c2cnn(C)c2O)ccc(S(C)(=O)=O)c1C1=NOCC1 [Topramezone, topramezone]
- % activity (Ambrosia artemisiifolia; PRE, AMBEL, use rate 6.25 gai/ha, 20 DAT): 0%
- % activity (Echinochloa crus-galli [8]): 10%
- % activity (Lolium multiflorum; PRE, LOLMU, use rate 3.125 gai/ha, 20 DAT): 0%
- % activity (Setaria viridis; PRE, SETVI, use rate 3.125 gai/ha, 20 DAT): 0%
- % activity (Ipomoea hederacea; POST, IPOHE, use rate 3.125 gai/ha, 20 DAT): 15%
- % activity (Ipomoea hederacea; POST, IPOHE, use rate 6.25 gai/ha, 20 DAT): 35%
